Each block holds one compound with its values, some of them ahead of it. Activity calls are given as the source filed them.
Experiments:
Fatty acid synthase [1] = biological target: T1, Fatty acid synthase (Homo sapiens, UniProt P49327); assay: inhibition of human FAS-TE enzyme activity – biochemical, kinetic fluorescence intensity, dose response (AID 624326); type: functional;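 also: rate of fluorescence rise from hydrolysis of a fluorogenic O-methyl fluorescein ester substrate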
Fatty acid synthase [2] = biological target: T1, Fatty acid synthase; assay: inhibition of human FAS-TE enzyme activity – biochemical, endpoint fluorescence intensity, uHTS hits, dose response (AID 624327); type: functional;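 also: fluorescence from hydrolysis of an O-methyl fluorescein acyl ester substrate by the enzyme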
[3] = Luminescence Cell-Based Dose Retest to Confirm Inhibitors of Cancer Stem Cells. [Related pubchem assays (depositor defined):AID2717, AID2721]; type: functional; conditions: Homo sapiens
[4] = biological target: Heat shock protein HSP 90-alpha (Homo sapiens, UniProt P07900); type: functional, organism-based
[5] = biological target: T2, High affinity choline transporter 1 (Homo sapiens, UniProt Q9GZV3); assay: human choline transporter blockers, potency – cell-based, 5-point CRC, membrane potential dye, dose response (AID 504840); type: functional
T2 sequence (Q9GZV3 whole entry): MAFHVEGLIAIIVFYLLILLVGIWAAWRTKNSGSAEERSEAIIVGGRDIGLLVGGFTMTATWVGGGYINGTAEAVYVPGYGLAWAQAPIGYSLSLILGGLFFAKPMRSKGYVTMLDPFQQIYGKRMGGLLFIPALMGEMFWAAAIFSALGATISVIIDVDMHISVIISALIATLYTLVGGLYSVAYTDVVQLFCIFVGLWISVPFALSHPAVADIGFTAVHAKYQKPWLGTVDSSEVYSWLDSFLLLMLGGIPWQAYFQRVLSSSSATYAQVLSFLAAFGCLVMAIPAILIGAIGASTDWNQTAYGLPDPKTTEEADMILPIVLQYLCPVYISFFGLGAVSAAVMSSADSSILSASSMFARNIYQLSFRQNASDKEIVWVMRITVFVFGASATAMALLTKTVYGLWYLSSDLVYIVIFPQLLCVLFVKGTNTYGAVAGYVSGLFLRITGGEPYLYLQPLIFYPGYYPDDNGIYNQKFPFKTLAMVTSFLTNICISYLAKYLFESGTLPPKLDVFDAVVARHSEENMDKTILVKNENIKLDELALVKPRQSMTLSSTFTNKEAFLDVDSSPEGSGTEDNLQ

[6] = biological target: T3, Polyadenylate-binding protein 1 (Homo sapiens, UniProt P11940); assay: MLLE binding blockers, Cy5 peptide tracer – biochemical, fluorescence polarization, Cy5-PAM2 peptide, secondary, miRNA deadenylation inhibitor project, dose response (AID 602260); type: functional; conditions: read-out: IC50_Mean
T3 sequence (P11940 whole entry, the tested form may be a part): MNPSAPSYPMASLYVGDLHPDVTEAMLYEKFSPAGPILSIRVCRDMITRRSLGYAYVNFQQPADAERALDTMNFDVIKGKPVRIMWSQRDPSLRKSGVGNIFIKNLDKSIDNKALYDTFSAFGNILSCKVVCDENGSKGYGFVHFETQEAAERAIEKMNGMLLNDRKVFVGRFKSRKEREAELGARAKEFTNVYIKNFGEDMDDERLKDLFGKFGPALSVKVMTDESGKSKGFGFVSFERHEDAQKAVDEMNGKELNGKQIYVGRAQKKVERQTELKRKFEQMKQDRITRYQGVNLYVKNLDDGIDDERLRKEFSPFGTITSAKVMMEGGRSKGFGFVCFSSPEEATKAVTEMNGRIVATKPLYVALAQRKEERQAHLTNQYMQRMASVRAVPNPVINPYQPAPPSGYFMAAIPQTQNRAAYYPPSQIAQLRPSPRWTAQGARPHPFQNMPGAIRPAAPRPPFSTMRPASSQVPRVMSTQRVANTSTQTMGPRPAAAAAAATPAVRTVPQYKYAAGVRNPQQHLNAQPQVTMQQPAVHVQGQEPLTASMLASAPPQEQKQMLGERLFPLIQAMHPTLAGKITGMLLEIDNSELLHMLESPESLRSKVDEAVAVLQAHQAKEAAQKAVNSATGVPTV

[7] = biological target: T3, Polyadenylate-binding protein 1; assay: MLLE domain peptide-binding blockers, IC50 – biochemical, fluorescence polarization, FITC-PAM2 peptide, dose response (AID 602259); type: functional; conditions: read-out: IC50_Mean
[8] = biological target: T4, Carboxy-terminal domain RNA polymerase II polypeptide A small phosphatase 1 (Homo sapiens, UniProt Q9GZU7); assay: CTDSP1 inhibitors, concentration-response, biochemical, absorbance readout, ultra-high-throughput screen actives (AID 540297); type: functional
T4 sequence (Q9GZU7 whole entry): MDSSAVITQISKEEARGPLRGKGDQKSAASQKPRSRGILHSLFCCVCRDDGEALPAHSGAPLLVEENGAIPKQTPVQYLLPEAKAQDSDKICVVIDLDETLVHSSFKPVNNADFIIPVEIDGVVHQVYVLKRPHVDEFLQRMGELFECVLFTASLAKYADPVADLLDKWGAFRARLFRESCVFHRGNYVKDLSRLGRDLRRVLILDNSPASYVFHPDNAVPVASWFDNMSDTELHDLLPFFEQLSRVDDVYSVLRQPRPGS

BJ [9] = assay: BJ-TERT-LT-ST fibroblast viability loss – cell-based, RAS-independent, luminescence, dose response (AID 1935); type: functional; conditions: Homo sapiens;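 also: BJ fibroblasts immortalized with TERT plus LT and ST oncogenes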
BJ [10] = assay: cells; type: functional, cell-based; conditions: Homo sapiens
[11] = HEK-293T viability loss after treatment – luminescence, T-cell screen hits, cytotoxicity control for TCR NF-kB inhibitor project, dose response (AID 489026); type: functional, cell-based;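 also: cells exposed to compound about 14 hours before the viability readout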
[12] = DRD fibroblast viability loss – cell-based, non-viral oncogenic, luminescence, dose response (AID 1934); type: functional; conditions: Homo sapiens
BJ [13] = assay: growth inhibition of engineered Ras-driven BJ cells – cell-based, alamar blue fluorescence, cherrypicked samples, dose response (AID 2631); type: functional; conditions: Homo sapiens;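 also: confirmatory dose-response assay in RAS-dependent BJ fibroblasts engineered with TERT, LT and ST, with cytotoxicity read by fluorescence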
BJ [14] = assay: BJ-TERT fibroblast viability loss – cell-based, RAS-independent, luminescence, dose response (AID 1933); type: functional; conditions: Homo sapiens

T1 sequence (P49327 whole entry): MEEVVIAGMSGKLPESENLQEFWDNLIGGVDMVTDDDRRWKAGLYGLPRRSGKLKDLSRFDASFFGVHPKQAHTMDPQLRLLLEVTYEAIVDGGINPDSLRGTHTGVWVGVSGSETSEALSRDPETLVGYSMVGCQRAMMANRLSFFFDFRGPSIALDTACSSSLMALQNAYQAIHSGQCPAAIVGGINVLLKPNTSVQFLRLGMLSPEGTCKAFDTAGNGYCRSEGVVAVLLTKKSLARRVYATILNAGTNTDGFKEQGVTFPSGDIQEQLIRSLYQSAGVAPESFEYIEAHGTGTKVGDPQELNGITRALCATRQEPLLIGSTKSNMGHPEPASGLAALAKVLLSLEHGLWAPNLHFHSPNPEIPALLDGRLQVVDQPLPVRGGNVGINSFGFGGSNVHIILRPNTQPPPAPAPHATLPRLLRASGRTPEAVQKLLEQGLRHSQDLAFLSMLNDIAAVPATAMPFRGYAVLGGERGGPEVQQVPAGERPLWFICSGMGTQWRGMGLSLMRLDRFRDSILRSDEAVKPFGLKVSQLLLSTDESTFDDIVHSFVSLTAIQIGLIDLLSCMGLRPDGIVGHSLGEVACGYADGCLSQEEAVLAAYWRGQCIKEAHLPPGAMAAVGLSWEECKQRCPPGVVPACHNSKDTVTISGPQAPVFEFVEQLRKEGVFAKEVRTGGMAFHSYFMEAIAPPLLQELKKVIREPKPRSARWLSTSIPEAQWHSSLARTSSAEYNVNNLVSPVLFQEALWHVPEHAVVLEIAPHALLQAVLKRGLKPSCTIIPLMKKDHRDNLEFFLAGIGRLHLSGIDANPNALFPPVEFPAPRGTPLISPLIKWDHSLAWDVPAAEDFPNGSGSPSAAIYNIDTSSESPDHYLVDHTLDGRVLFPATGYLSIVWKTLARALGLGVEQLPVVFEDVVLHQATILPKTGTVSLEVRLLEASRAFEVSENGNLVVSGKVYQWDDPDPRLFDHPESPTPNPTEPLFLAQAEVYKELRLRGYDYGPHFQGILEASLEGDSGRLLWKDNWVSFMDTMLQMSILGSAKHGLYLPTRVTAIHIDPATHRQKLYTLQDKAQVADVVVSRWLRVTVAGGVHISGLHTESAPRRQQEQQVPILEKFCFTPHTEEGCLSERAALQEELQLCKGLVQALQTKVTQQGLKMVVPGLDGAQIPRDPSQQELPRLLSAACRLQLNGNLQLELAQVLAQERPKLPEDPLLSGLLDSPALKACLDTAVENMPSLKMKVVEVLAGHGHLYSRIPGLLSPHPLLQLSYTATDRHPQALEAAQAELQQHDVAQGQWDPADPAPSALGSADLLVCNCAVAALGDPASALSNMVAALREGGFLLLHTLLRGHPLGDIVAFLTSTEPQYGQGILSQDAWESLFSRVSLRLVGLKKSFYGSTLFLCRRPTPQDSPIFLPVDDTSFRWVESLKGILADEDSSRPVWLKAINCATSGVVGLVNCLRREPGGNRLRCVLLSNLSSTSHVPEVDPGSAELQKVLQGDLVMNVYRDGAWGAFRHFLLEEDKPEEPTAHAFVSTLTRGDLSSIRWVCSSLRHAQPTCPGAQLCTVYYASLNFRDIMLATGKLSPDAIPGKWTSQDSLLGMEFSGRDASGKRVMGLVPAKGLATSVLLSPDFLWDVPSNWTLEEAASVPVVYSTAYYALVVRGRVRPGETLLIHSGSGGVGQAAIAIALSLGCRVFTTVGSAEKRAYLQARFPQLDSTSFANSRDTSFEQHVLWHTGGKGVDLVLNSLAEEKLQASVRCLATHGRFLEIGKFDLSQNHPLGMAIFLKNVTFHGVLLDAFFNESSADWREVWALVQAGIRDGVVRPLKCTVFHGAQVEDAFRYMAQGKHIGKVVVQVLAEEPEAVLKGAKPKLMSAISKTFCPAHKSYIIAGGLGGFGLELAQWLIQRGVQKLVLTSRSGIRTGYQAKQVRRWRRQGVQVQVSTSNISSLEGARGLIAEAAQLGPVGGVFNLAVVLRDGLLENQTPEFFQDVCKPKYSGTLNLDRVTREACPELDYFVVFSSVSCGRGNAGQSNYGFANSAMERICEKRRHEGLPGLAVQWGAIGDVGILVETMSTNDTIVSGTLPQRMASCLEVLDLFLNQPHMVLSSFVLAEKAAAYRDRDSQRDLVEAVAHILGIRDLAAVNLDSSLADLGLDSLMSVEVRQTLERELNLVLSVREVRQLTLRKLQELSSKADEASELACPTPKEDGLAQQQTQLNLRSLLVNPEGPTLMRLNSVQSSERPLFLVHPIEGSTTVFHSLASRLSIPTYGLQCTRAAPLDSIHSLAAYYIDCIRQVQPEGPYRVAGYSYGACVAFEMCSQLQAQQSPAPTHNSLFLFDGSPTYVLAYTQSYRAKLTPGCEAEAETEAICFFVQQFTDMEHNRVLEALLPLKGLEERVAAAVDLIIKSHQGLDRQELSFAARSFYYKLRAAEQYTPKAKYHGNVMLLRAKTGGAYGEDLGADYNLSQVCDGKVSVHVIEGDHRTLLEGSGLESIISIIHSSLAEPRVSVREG

IC50 (Fatty acid synthase [1]): 12.9 µM (active)
IC50 (Fatty acid synthase [2]): 21.1 µM (inactive)
SMILES: COc1ccc(N2CCN(C(=O)CSc3ccc([N+](=O)[O-])cc3)CC2)cc1

SMILES: O=C(NCCCSc1ccccc1)c1cc(Br)ccc1O
AC50 [3]: 3.38 µM (active)
AC50 [4]: 4.6 µM (active)

IC50 [5]: 12.6 µM (active)
SMILES: Cc1ccc(NC(S)=NNC(=O)c2cccc([N+](=O)[O-])c2)cc1Cl

IC50 [6]: > 66 µM (inactive)
IC50 [7]: > 66 µM (inactive)
SMILES: CC1=C(C(=O)O)N2C(=O)C(NC(=O)c3ccc(F)cc3)C2SC1 (stereo unspecified)

IC50 [6]: > 66 µM (inactive)
IC50 [7]: > 66 µM (inactive)
SMILES: CC(=O)c1ccc(OCCCC(=O)NC2=NCCS2)cc1

IC50 [6]: > 66 µM (inactive)
IC50 [7]: > 66 µM (inactive)
SMILES: CCCN1C(=O)SC(CC(=O)Nc2ccc(C)cc2)C1=O (stereo unspecified)

SMILES: CC(=O)OC1C(=O)OCC23CCC4(C)OC4C2OC2CC(OC(=O)C=CC=CC(=O)OCCC1C)C3(C)C21CO1 (stereo unspecified)
AC50 [4]: 2.3 µM (active)

IC50 (Fatty acid synthase [1]): 2.72 µM (active)
IC50 (Fatty acid synthase [2]): 6.61 µM (active)
SMILES: O=C(Nc1cccc(Cl)c1)c1cc([N+](=O)[O-])ccc1N1CCN(CCO)CC1

IC50 (Fatty acid synthase [1]): 10.1 µM (active)
IC50 (Fatty acid synthase [2]): 10.3 µM (active)
SMILES: COc1cc(C(=O)COC(=O)c2cc([N+](=O)[O-])ccc2N2CCOCC2)ccc1OC(F)F

IC50 [6]: > 66 µM (inactive)
IC50 [7]: > 66 µM (inactive)
SMILES: CC(C)(CCC(=S)N1CCOCC1)C1CCCCC1

IC50 [8]: 8.74 µM (active)
SMILES: COc1ccc(NC(=O)CN(C)C(=O)/C=C/c2cn(Cc3ccccc3)nc2-c2cccnc2)cc1

AC50 [4]: 4.35 µM (active)
SMILES: CCc1ccccc1NC(=O)c1cccc(Oc2ccc([N+](=O)[O-])cc2Cl)c1

SMILES: Cc1cc(C)cc(NS(=O)(=O)c2ccc(-c3cnc(C4CC4)o3)cc2)c1
EC50 (BJ [9]): 0.521 µM (inconclusive)
EC50 (BJ [10]): 26.2 µM (active)
IC50 [11]: > 80 µM (inactive)
EC50 [12]: 0.525 µM (active)
EC50 (BJ [13]): < 0.104 µM (active)
EC50 (BJ [14]): 0.346 µM (active)
